Measured values reported in patent publication US20180311217A1, “METHODS OF TREATMENT AND COMPOSITIONS WITH XANTHINE OXIDASE INHIBITORS” (Takeda Pharmaceuticals U.S.A., Inc., priority 2013, published 2018).
Where two headings read alike, the source gives them in different places.

Assay: Study TMX-99-001: febuxostat plasma pharmacokinetics
Format: in vivo, human
Design: AUC24/Dose: unit not given here
Conditions: mean; for Cmin: terminal phase at or before 24 hours; for MRT inf / AUC / partial AUC from 0 to 4 hours: human, plasma, oral; for partial AUC from 0 to 4 hours: read-out: AUC0-4

Cc1nc(-c2ccc(OCC(C)C)c(C#N)c2)sc1C(=O)O [Febuxostat, 2-[3-cyano-4-(2-methylpropoxy)phenyl]-4-methylthiazole-5-carboxylic acid]
Tmin (IR 50 mg single dose): 22.00 h | Cmin (IR 50 mg single dose): 15.98 ng/mL | AUC24 (IR 70 mg single dose): 6948.21 ng·h/mL | AUC24/Dose (IR 70 mg single dose): 99.26 | Cmax (IR 70 mg single dose): 2689.91 ng/mL | Cmax/dose (IR 70 mg single dose): 38.43 ng/mL/mg | Tmax (IR 70 mg single dose): 1.10 h | Tmin (IR 70 mg single dose): 23.20 h | Cmin (IR 70 mg single dose): 23.81 ng/mL | AUC0-4 (IR 90 mg single dose): 6893.00 ng·h/mL | AUC24/Dose (IR 90 mg single dose): 104.36 | Cmax (IR 90 mg single dose): 4061.63 ng/mL | Cmax/dose (IR 90 mg single dose): 45.13 ng/mL/mg | Tmin (IR 90 mg single dose): 24.00 h | Cmin (IR 90 mg single dose): 27.53 ng/mL | AUC24 (IR 120 mg single dose): 11959.93 ng·h/mL | AUC24/Dose (IR 120 mg single dose): 99.67 | Cmax (IR 120 mg single dose): 5307.58 ng/mL | Cmax/dose (IR 120 mg single dose): 44.23 ng/mL/mg | Tmax (IR 120 mg single dose): 1.11 h | Tmin (IR 120 mg single dose): 24.00 h | Cmin (IR 120 mg single dose): 41.49 ng/mL | AUC24 (IR 160 mg single dose): 22282.12 ng·h/mL | AUC24/Dose (IR 160 mg single dose): 139.26 | Cmax (IR 160 mg single dose): 8771.07 ng/mL | Cmax/dose (IR 160 mg single dose): 54.82 ng/mL/mg | Tmax (IR 160 mg single dose): 0.80 h | Tmin (IR 160 mg single dose): 22.80 h | Cmin (IR 160 mg single dose): 79.88 ng/mL | AUC24 (IR 180 mg single dose): 23954.54 ng·h/mL | AUC24/Dose (IR 180 mg single dose): 133.08 | Cmax (IR 180 mg single dose): 8048.76 ng/mL | Cmax/dose (IR 180 mg single dose): 44.72 ng/mL/mg | Tmin (IR 180 mg single dose): 24.00 h | Cmin (IR 180 mg single dose): 75.73 ng/mL | AUC24 (IR 240 mg single dose): 34976.26 ng·h/mL | AUC24/Dose (IR 240 mg single dose): 145.73 | Cmax (IR 240 mg single dose): 11263.03 ng/mL | Cmax/dose (IR 240 mg single dose): 46.93 ng/mL/mg | Tmax (IR 240 mg single dose): 0.94 h | Tmin (IR 240 mg single dose): 24.00 h | Cmin (IR 240 mg single dose): 71.30 ng/mL | MRT inf (30 mg, IR 30 mg BID): 18.6 h | AUC (30 mg, IR 30 mg BID, following AM and PM dose, read-out: AUC4-24): 3980 ng·h/mL | AUC (30 mg, IR 30 mg BID, following AM and PM dose, read-out: AUC24): 6220 ng·h/mL | partial AUC from 0 to 4 hours (30 mg, IR 30 mg BID, following AM dose): 2240 ng·h/mL | MRT inf (30 mg, IR 30 mg single dose): 4.99 h | partial AUC from 0 to 4 hours (30 mg, IR 30 mg single dose): 1900 ng·h/mL | AUC (30 mg, IR 30 mg single dose, read-out: AUC4-24): 629 ng·h/mL | AUC (30 mg, IR 30 mg single dose, read-out: AUC24): 2520 ng·h/mL | MRT inf (40 mg, IR 40 mg single dose): 4.54 h | partial AUC from 0 to 4 hours (40 mg, IR 40 mg single dose): 3350 ng·h/mL | MRT inf (50 mg, IR 50 mg single dose): 5 h | AUC (50 mg, IR 50 mg single dose, read-out: AUC4-24): 1260 ng·h/mL | MRT inf (70 mg, IR 70 mg single dose): 5 h | partial AUC from 0 to 4 hours (70 mg, IR 70 mg single dose): 5280 ng·h/mL | AUC (70 mg, IR 70 mg single dose, read-out: AUC4-24): 1670 ng·h/mL | MRT inf (90 mg, IR 90 mg single dose): 5.81 h | AUC (90 mg, IR 90 mg single dose, read-out: AUC4-24): 2500 ng·h/mL | AUC (90 mg, IR 90 mg single dose, read-out: AUC24): 9390 ng·h/mL | MRT inf (120 mg, IR 120 mg single dose): 5.43 h | partial AUC from 0 to 4 hours (120 mg, IR 120 mg single dose): 8590 ng·h/mL | AUC (120 mg, IR 120 mg single dose, read-out: AUC4-24): 3370 ng·h/mL | MRT inf (160 mg, IR 160 mg single dose): 4.65 h | partial AUC from 0 to 4 hours (160 mg, IR 160 mg single dose): 16400 ng·h/mL | AUC (160 mg, IR 160 mg single dose, read-out: AUC4-24): 5840 ng·h/mL | MRT inf (180 mg, IR 180 mg single dose): 5.53 h | partial AUC from 0 to 4 hours (180 mg, IR 180 mg single dose): 16800 ng·h/mL | AUC (180 mg, IR 180 mg single dose, read-out: AUC4-24): 7150 ng·h/mL | MRT inf (240 mg, IR 240 mg single dose): 4.32 h | partial AUC from 0 to 4 hours (240 mg, IR 240 mg single dose): 25100 ng·h/mL | AUC (240 mg, IR 240 mg single dose, read-out: AUC4-24): 9900 ng·h/mL
